In patent US10071158B2, “Combination of the application of antibodies for immunostimulation together with glucocorticoids” (Lindis Biotech GmbH, priority 2005, dated 2018):
“Also recorded” adds a separate entry of the source.

Columns and labels:
[1] = test system: HCT8 tumour cells; test: Cytotoxicity assay with fluorescence-marked HCT8 tumour cells, PBMC of healthy test subjects and tumour patients (FIG. 10); format: cell-based, human
Experimental: FIGS. 10A to 10C represent the mean values of the measurements carried out in respect of three healthy test subjects, whereas FIG. 10D represents the mean values of the measurements carried out in respect of six patients with gastrointestinal carcinoma. In the experiments a stimulation was effected with trifunctional bispecific antibodies with the specificity anti-EpCAM x anti-CD3 at various concentrations amounting to 10 ng/ml, 100 ng/ml and 1000 ng/ml. The respective concentration of the antibody that has been used is specified in FIGS. 10A to 10D. The concentration of the PBMC amounted to 10^6 cells/ml, that of the HCT8 cells amounted to 5×10^4 cells/ml. […] On the y-axis the percentage cytotoxicity has been plotted; on the x-axis the respective experimental assay of the PBMC has been plotted, with unstimulated PBMC serving by way of control (PBMC).

[2] = test system: mononuclear cells of the peripheral blood (PBMC); test: Release of IL-6 by PBMC after stimulation with anti-EpCAM x anti-CD3 antibody without/with HCT8 tumour cells (ELISA); format: cell-based, human; conditions: antibody-stimulated PBMC with HCT8; dexamethasone 0.01 μg/ml to 10 μg/ml (FIG. 1B)
Experimental: FIG. 1A represents the release of IL-6, the IL-6 concentration in pg/ml being plotted on the y-axis. On the x-axis the respective stimulation of the PBMC has been plotted, with unstimulated PBMC serving by way of control (bar “PBMC”). In this connection, E signifies in each instance the stimulation with 100 μg/ml trifunctional bispecific antibody with the specificity anti-EpCAM x anti-CD3. […] In the experiment according to FIG. 1A the release of IL-6 from PBMC is investigated after stimulation without contact with EpCAM-positive tumour cells (=target cells). The stimulation without EpCAM-positive tumour cells corresponds to the non-specific release of cytokine, which is independent of the antigen binding. Release is accordingly effected systemically by the totality of the PBMC.
This procedure of stimulation with EpCAM-positive tumour cells corresponds to the situation of the release of IL-6 by the PBMC at the site of antigen binding. […] In the clinical use of the immunostimulating antibody together with the glucocorticoid the high quantity of IL-6 is released only by a few PBMC that are directly involved in the specific action. […]
(§1) FIGS. 14 to 16 show graphic representations of the results of the release of various cytokines in tumour patients by PBMC. […] The release of the same cytokines was measured likewise. […]

[3] = test system: HCT8 tumour cells; test: Two-hour cytotoxicity assay with fluorescence-marked (BCECF-AM) HCT8 tumour cells, stimulated PBMC (FIG. 5); format: cell-based, human; design: effect on specific percentage cytotoxicity of stimulated PBMC: dose or concentration left out as unconfirmed
Experimental: FIG. 5A-5D represents in diagrams the results of the measurement of the specific percentage cytotoxicity, which was determined in a two-hour cytotoxicity assay with fluorescence-marked HCT8 tumour cells. In FIGS. 5A to 5D the specific percentage cytotoxicity against HCT8 has been plotted as a function of the ratio of effector cells to target cells (E/T), the cytotoxicity test having been carried out in each instance in the case of a ratio of the effector cells to the target cells of 40:1, 20:1, 10:1, 5:1 and 2.5:1.
With the aid of a cytotoxicity test the influence of glucocorticoid on the T-cell toxicity was investigated. The extraction of the PBMC and the stimulation thereof were carried out in accordance with the above Example 1.
The measurement of cytotoxicity was undertaken with the aid of a fluorescence test using the dyestuff BCECF-AM. The measurement was undertaken by means of 2 h release technology corresponding to the procedure in Kolber et al. (1988) J. Immunol. Meth. 108: 255-264.

[4] = test system: mononuclear cells of the peripheral blood (PBMC); test: Release of TNF-α by PBMC after stimulation with anti-EpCAM x anti-CD3 antibody without/with HCT8 tumour cells (ELISA); format: cell-based, human; conditions: without HCT8; dexamethasone 0.1 μg/ml (FIG. 2C)
Description: FIG. 2A-2C represents in diagrams the results of the release of tumour necrosis factor α (TNF-α) after stimulation with trifunctional bispecific antibody of the specificity anti-EpCAM x anti-CD3 without and in the presence of EpCAM-positive tumour cells.
This stimulation without target cells corresponds, in turn, as already stated with respect to FIG. 1A, to the systemic, non-specific release of cytokine, which arises independently of the antibody/antigen interaction. This systemic release of TNF-α is effected by the totality of the PBMC population. […]
FIG. 2B represents, in a diagram similar to FIG. 1B, the release of TNF-α from PBMC after antibody stimulation with contact with EpCAM-positive tumour cells, the TNF-α concentration in pg/ml being plotted, here too, on the y-axis. […] In the case of stimulation with contact with EpCAM-positive tumour cells, in comparison with the stimulation without contact with target cells, in connection with the release of TNF-α absolutely higher values are also measured, which, however, as already stated above with respect to the release of IL-6 in connection with FIG. 1B, has its origin in the specific immunological action at the site of the antibody/antigen interaction. […]
as §1

[5] = test system: mononuclear cells of the peripheral blood (PBMC); test: Release of IFN-γ by PBMC after stimulation with anti-EpCAM x anti-CD3 antibody without/with HCT8 tumour cells (ELISA); format: cell-based, human; conditions: dexamethasone 0.1 μg/ml
Experimental: Mononuclear cells were extracted from the peripheral blood of a healthy volunteer by means of centrifugation over Ficoll (density 1.068 g/cm^3). To this end, venous heparinised blood was stratified over Ficoll and centrifuged at 2000 rpm for 20 min. The cell layer located above the Ficoll was pipetted off after centrifugation and was washed with PBS.
For the purpose of stimulation, the PBMC were used at a concentration of 1×10^6/ml. The stimulation of the PBMC was effected with an intact trifunctional bispecific antibody either of the specificity anti-EpCAM x anti-CD3 at a concentration of 100 μg/ml or of the specificity anti-HER2/neu x anti-CD3 at a concentration of 1 mg/ml. The stimulation was carried out for 24 h by incubation at 37 ° C. The stimulation was effected in each instance without tumour cells or in the presence of 5×10^4 HCT8 tumour cells (relative to ATCC; EpCAM-positive) per ml.
After the stimulation the determination of the concentrations of the cytokines IL-6, IL-10, TNF-α and IFN-γ was undertaken in the supernatant on plates with 24 recesses in each instance by means of an ELISA. In each instance duplicate measurements were carried out. The ELISAs were undertaken by means of standardised kits produced by R&D Systems, in accordance with the manufacturer's instructions.

[6] = after i.v. injection; cited from earlier work

SMILES: C[C@@H]1C[C@H]2[C@@H]3CCC4=CC(=O)C=C[C@]4(C)[C@@]3(F)[C@@H](O)C[C@]2(C)[C@@]1(O)C(=O)CO [dexamethasone]
- inhibition of the specific percentage cytotoxicity ([1]; antibody 10 ng/ml, no contact with HCT8, dexamethasone, healthy test subjects): about 5 percentage points
- inhibition of the specific percentage cytotoxicity ([1]; antibody 10 ng/ml, with HCT8, dexamethasone up to 1.0, healthy test subjects (FIG. 10A)): approximately 15 percentage points
- specific percentage cytotoxicity ([1]; antibody 10 ng/ml, with HCT8, with dexamethasone, healthy test subjects): ~41%
- inhibition of the cytotoxicity ([1]; antibody 100 ng/ml, dexamethasone, patients with gastrointestinal tumours (FIG. 10D)): approximately 27 percentage points
- inhibition of the specific percentage cytotoxicity ([1]; antibody 100 ng/ml, with HCT8, dexamethasone up to 1.0, healthy test subjects (FIG. 10B)): about 30 percentage points
- specific percentage cytotoxicity ([1]; antibody 100 ng/ml, with HCT8, with dexamethasone, healthy test subjects): ~50%
- cytotoxicity ([1]; antibody 100 ng/ml, with dexamethasone, patients with gastrointestinal tumours): ~51%
- inhibition of the cytotoxicity ([1]; antibody 100 ng/ml, without contact with HCT8, dexamethasone, healthy test subjects): approximately 10 percentage points
- inhibition of the specific percentage cytotoxicity ([1]; antibody 1000 ng/ml, with HCT8, dexamethasone up to 1.0, healthy test subjects (FIG. 10C)): about 20 percentage points
- specific percentage cytotoxicity ([1]; antibody 1000 ng/ml, with HCT8, with dexamethasone, healthy test subjects): ~67%
- inhibition of the cytotoxicity ([1]; antibody 1000 ng/ml, without contact with HCT8, dexamethasone, healthy test subjects): about 2 percentage points
- release of IL-6 in the supernatant [2]: above 5000 pg/ml
- effect on the cytotoxicity of stimulated PBMC ([3]; dexamethasone 0.01 μg/ml): no effect
- percentage cytotoxicity ([3]; dexamethasone 0.1 μg/ml to 10 μg/ml, stimulation in the presence of HCT8, E/T 40:1): maintained constant at a high level
- inhibition of the specific percentage cytotoxicity ([3]; dexamethasone 0.1 μg/ml, with or without HCT8 during stimulation (FIG. 5B)): about 50 percentage points
- inhibition of the percentage specific cytotoxicity ([3]; dexamethasone 1 μg/ml, E/T 20:1, stimulation in the absence of HCT8): distinctly greater inhibition
- inhibition of the specific percentage cytotoxicity compared with 0.1 μg/ml ([3]; dexamethasone 1 μg/ml, stimulation in the presence of HCT8 (FIG. 5C)): roughly the same level
- cytotoxicity values in relation to lower dexamethasone concentrations ([3]; dexamethasone 10 μg/ml, stimulation in the absence of HCT8): declined further
- percentage cytotoxicity ([3]; dexamethasone 10 μg/ml, stimulation in the presence of HCT8, E/T 20:1 (FIG. 5D)): 30%
- specific percentage cytotoxicity ([3]; dexamethasone 10 μg/ml, stimulation in the presence of HCT8, E/T twice as large (40:1)): about 60%
- effect on specific percentage cytotoxicity of stimulated PBMC ([3]; dexamethasone (FIG. 5A)): no effect; also recorded: no inhibition
- effect on cytotoxicity ([3]; dexamethasone starting from 0.1 μg/ml, independent of HCT8 during stimulation): significant reducing; also recorded: distinct reducing
- percentage cytotoxicity as a function of dexamethasone concentration ([3]; stimulation of PBMC without HCT8): declines further
- non-specific secretion of TNF-α, % of value with antibody without dexamethasone [4]: ~20%
- release of IFN-γ [5]: under 3000 pg/ml
- maximum plasma concentrations attained [6]: within a few minutes
